Assay results taken from US7977082B2, “Isomaltulose synthases, polynucleotides encoding them and uses therefor” (The University of Queensland of St. Lucia, priority 2001, dated 2011).
Where “and” joins values, the source holds several entries; their conditions need not be identical. Identical values can stand only once. Residues, ends and D or L forms follow the SMILES beside them.

B1: Pantoea dispersa 68J sucrose isomerase (SI), mature, SEQ ID NO: 10, carboxy-terminal 6×His tag (SEQ ID NO: 52) (Pantoea dispersa) (protein)
chain: ATNIQKSADFPIWWKQAVFYQIYPRSFKDSNGDGIGDIPGIIEKLDYLKMLGVDAIWINPHYESPNTDNGYDISDYRKIMKEYGSMADFDRLVAEMNKRGMRLMIDIVINHTSDRHRWFVQSRSGKDNPYRDYYFWRDGKQGQAPNNYPSFFGGSAWQLDKQTDQYYLHYFAPQQPDLNWDNPKVRAELYDILRFWLDKGVSGLRFDTVATFSKIPGFPDLSKAQLKNFAEAYTEGPNIHKYIHEMNRQVLSKYNVATAGEIFGVPVSAMPDYFDRRREELNIAFTFDLIRLDRYPDQRWRRKPWTLSQFRQVISQTDRAAGEFGWNAFFLDNHDNPRQVSHFGDDSPQWRERSAKALATLLLTQRATPFIFQGAELGMTNYPFKNIEEFDDIEVKGFWNDYVASGKVNAAEFLQEVRMTSRDNSRTPMQWNDSVNAGFTQGKPWFHLNPNYKQINAAREVNKPDSVFSYYRQLINLRHQIPALTSGEYRDLDPQNNQVYAYTRILDNEKYLVVVNFKPEQLHYALPDNLTIASSLLENVHQPSLQENASTLTLAPWQAGIYKLN
B2: Klebsiella sp. 14S sucrose isomerase (SI), carboxy-terminal 6×His tag (SEQ ID NO: 52) (Klebsiella planticola) (protein)
chain: APSVNQNIHVHKESEYPAWWKEAVFYQIYPRSFKDTNDDGIGDIRGIIEKLDYLKSLGIDAIWINPHYDSPNTDNGYDISNYRQIMKEYGTMEDFDNLVAEMKKRNMRLMIDVVINHTSDQHPWFIQSKSDKNNPYRDYYFWRDGKDNQPPNNYPSFFGGSAWQKDAKSGQYYLHYFARQQPDLNWDNPKVREDLYAMLRFWLDKGVSSMRFDTVATYSKIPGFPNLTPEQQKNFAEQYTMGPNIHRYIQEMNRKVLSRYDVATAGEIFGVPLDRSSQFFDPRRHELNMAFMFDLIRLDRDSNERWRHKSWSLSQFRQIISKMDVTVGKYGWNTFFLDNHDNPRAVSHFGDDRPQWREASAKALATITLTQRATPFIYQGSELGMTNYPFRQLNEFDDIEVKGFWQDYVQSGKVTATEFLDNVRLTSRDNSRTPFQWNDTLNAGFTRGKPWFHINPNYVEINAEREETREDSVLNYYKKMIQLRHHIPALVYGAYQDLNPQDNTVYAYTRTLGNERYLVVVNFKEYPVRYTLPANDAIEEVVIDTQQQATAPHSTSLSLSPWQAGVYKLR

System: strain 68J
Test: Growth of strain 68J with different carbon sources (BIOLOG GN)
Assay type: cell-based, Pantoea dispersa
Parameters: scale not given here
Details: relative values; 96-well plates (BIOLOG GN)
Description: The morphological, cultural and biochemical features of strain 68J were determined in tests using E. coli (Top 10), K. oxytoca (JMP4505), E. rhapontici (WAC2928) as positive/negative controls. Gram stain, fermentation, catalase activity, pigment observation, and Simon's citrate tests were conducted according to Singleton (1999, Bacteria in Biology, Biotechnology and Medicine (5th edition). Wiley, New York). Oxidase activity by Kovac's reagent, indole production by Ehrlich's indole test, methyl red response, Voges-Proskauer reaction in Clark and Lub's medium, urea hydrolysis in Christensen's urea, lysine decarboxylase, ornithine decarboxylase and gelatin liquefaction were tested as described by MacFaddin (1979, Biochemical Tests for Identification of Medical Bacteria. Williams & Wilkins, Baltimore). Morphology, capsules and motility were observed microscopically. Carbon source utilization was tested in 96-well plates (BIOLOG GN).

Row | Molecule | Growth
1 | O=P(O)(O)OCC(O)CO (racemic) [D,L-α-glycerol phosphate] | −8
2 | N[C@@H](C(=O)O)[C@@H](O)[C@H](O)[C@H](O)CO [D-glucosaminic acid] | 1
3 | OC[C@@H](O)C(O)[C@H](O)CO [D-arabitol] | −11
4 | O=C1O[C@@H]([C@H](O)CO)[C@H](O)[C@H]1O [D-galactonic acid lactone] | −7
5 | O=C(O)/C=C(/CC(=O)O)C(=O)O [cis-aconitic acid] | 122
6 | 2,3-butynediol | 1
7 | C[N+](C)(C)CC(O)CC(=O)[O-] (racemic) [D,L-carnitine] | −10
8 | OC[C@H]1O[C@H](O[C@H]2O[C@H](CO)[C@@H](O)[C@H](O)[C@H]2O)[C@H](O)[C@@H](O)[C@@H]1O [D-trehalose] | 619
9 | OC[C@H]1O[C@H](OC[C@H]2O[C@H](O[C@]3(CO)O[C@H](CO)[C@@H](O)[C@@H]3O)[C@H](O)[C@@H](O)[C@@H]2O)[C@H](O)[C@@H](O)[C@H]1O [D-raffinose] | 330
10 | NCC(=O)N[C@@H](CC(=O)O)C(=O)O [Glycyl-L-aspatic acid] (H-Gly-Asp-OH) | −8
11 | OC[C@H]1O[C@@H]2O[C@H]3[C@H](O)[C@@H](O)[C@@H](O[C@H]4[C@H](O)[C@@H](O)[C@@H](O[C@H]5[C@H](O)[C@@H](O)[C@@H](O[C@H]6[C@H](O)[C@@H](O)[C@@H](O[C@H]7[C@H](O)[C@@H](O)[C@@H](O[C@H]1[C@H](O)[C@H]2O)O[C@@H]7CO)O[C@@H]6CO)O[C@@H]5CO)O[C@@H]4CO)O[C@@H]3CO [a-cyclodextrin] | 9
12 | O=C(O)Cc1ccc(O)cc1 [ρ-hydroxy phenylacetic acid] | 5
13 | O=P(O)(O)O[C@H]1O[C@H](CO)[C@@H](O)[C@H](O)[C@H]1O [Glucose-1-phosphate] | 356
14 | α-D-lactose lactulose | 12
15 | O=C(O)CCC(=O)C(=O)O [α-keto glutanic acid] | 91
16 | O=C(CO)[C@@H](O[C@H]1O[C@H](CO)[C@@H](O)[C@H](O)[C@H]1O)[C@H](O)[C@H](O)CO [Turanose] | 23
17 | C[C@@H](O)[C@H](N)C(=O)O [L-theronine] | −12
18 | NCCO [2-amino ethanol] | −4
19 | CC(O)C(=O)O (racemic) [D,L-lactic acid] | 365
20 | O[C@H]1[C@H](O)[C@@H](O)[C@H](O)[C@@H](O)[C@H]1O [m-inositol] | 611
21 | OC[C@@H](O)[C@@H](O)CO [i-erythritol] | 0
22 | O=C(O)[C@H]1OC(O)[C@H](O)[C@@H](O)[C@@H]1O (stereo partly drawn) [D-glucoronic acid] | 6
23 | CO[C@@H]1O[C@H](CO)[C@@H](O)[C@H](O)[C@H]1O [β-methyl D-glucosidase] | 684
24 | OC[C@H]1O[C@H](OCC2O[C@@H](O)[C@H](O)[C@@H](O)[C@@H]2O)[C@H](O)[C@@H](O)[C@H]1O (stereo partly drawn) [D-melibiose] | 6
25 | Tween40 | 25

System: P. dispersa 68J
Test: Growth in BP medium with different sugars
Assay type: cell-based
Details: 2% sugar added to BP medium, 18 h incubation at 30°C
Description: Isomaltulose production was tested using cells grown in LB and in a basal peptone medium (BP, comprising 1% BBL gelysate peptone and 0.5% NaCl, adjusted to pH 7.0 prior to autoclaving). Glucose, fructose, sucrose, lactose, maltose or isomaltulose was added to the cooled media, from a filter-sterilised stock. The media containing 4% (w/v) sucrose are referred to as SLB and SBP respectively.
Inoculum of 100 μL from a culture grown for 12 h in LB medium was added to 25 mL growth medium in a 250 mL flask. After 18 h at 30° C. on a shaker at 225 rpm, OD600 was used to measure growth. Cultures were diluted with growth medium to OD600=1.50 (approximately half the cell density of a saturated culture in SLB). Aliquots of 1 mL were harvested by centrifugation at 5000×g for 10 min and washed three times with 0.1 M citrate/phosphate buffer (pH 6.0). The cell pellets were resuspended in 0.4 mL of 0.1 M citrate/phosphate buffer (pH 6.0) containing 50% sucrose (w/v). Culture supernatant was filtered through a 0.2 μm filter (Pall Acrodisc), and 0.1 mL was mixed with 0.4 mL of 0.1 M citrate/phosphate buffer (pH 6.0) containing 50% sucrose (w/v), for parallel testing of culture filtrate and harvested cells in the SI assay.

Row | Molecule | effect on growth of P. dispersa 68J
26 | OC[C@H]1O[C@@H](O[C@H]2[C@H](O)[C@@H](O)C(O)O[C@@H]2CO)[C@H](O)[C@@H](O)[C@H]1O (stereo partly drawn) [lactose] | little effect
27 | OC[C@H]1O[C@@](CO)(O[C@H]2O[C@H](CO)[C@@H](O)[C@H](O)[C@H]2O)[C@@H](O)[C@@H]1O [Sucrose] | supported faster growth
28 | OC[C@H]1O[C@H](O[C@H]2[C@H](O)[C@@H](O)[C@H](O)O[C@@H]2CO)[C@H](O)[C@@H](O)[C@@H]1O [Maltose] | little effect

System: E. rhapontici sucrose isomerase (SI)
Test: not given
Details: Nagai et al., 1994; Véronèse and Perlot, 1998; cited from earlier work

Row | Molecule | Inhibition of activity
29 | OC[C@H]1OC(O)(CO)[C@@H](O)[C@@H]1O (stereo partly drawn) [fructose] | not

System: K. plymuthica sucrose isomerase (SI)
Test: not given
Details: Nagai et al., 1994; Véronèse and Perlot, 1998; cited from earlier work

Row | Molecule | Inhibition of activity
30 | OC[C@H]1OC(O)(CO)[C@@H](O)[C@@H]1O (stereo partly drawn) [fructose] | not

System: P. rubrum sucrose isomerase (SI)
Test: not given
Details: Nagai et al., 1994; Véronèse and Perlot, 1998; cited from earlier work

Row | Molecule | Inhibition of activity
31 | OC[C@H]1OC(O)(CO)[C@@H](O)[C@@H]1O (stereo partly drawn) [fructose] | not

System: P. mesoacidophila sucrose isomerase (SI)
Test: not given
Details: Nagai et al., 1994; Véronèse and Perlot, 1998; cited from earlier work

Row | Molecule | Inhibition of activity
32 | OC[C@H]1OC(O)(CO)[C@@H](O)[C@@H]1O (stereo partly drawn) [fructose] | not

Substrate: OC[C@H]1O[C@@](CO)(O[C@H]2O[C@H](CO)[C@@H](O)[C@H](O)[C@H]2O)[C@@H](O)[C@@H]1O
Test: Sucrose isomerase kinetics, purified SI from P. dispersa 68J (isomaltulose production), with or without glucose/fructose
Assay type: biochemical, Pantoea dispersa 68J
Details: other: sucrose, pH 6.0, 30° C., Lineweaver and Burk
Description: (§1) The pET24b vector introduces a carboxy-terminal 6×His tag (SEQ ID NO: 52) on expressed proteins, which were purified by adsorption to Ni-NTA agarose (Qiagen) and elution with 25 mM NaH2PO4, 150 mM NaCl, 125 mM imidazole buffer (pH8.0) following the manufacturer's instructions. For storage, the eluted solution was diluted with 50% glycerol. The purity of SI proteins was tested by SDS-PAGE as described below. A batch procedure using Ni-NTA agarose in suspension yielded predominantly (80-95%) SI with a background of several other protein bands. A procedure using Ni-NTA agarose in adsorption columns yielded preparations containing a single protein band. […]
(§2) Enzyme activities were measured by incubating 5 μl of purified enzyme with 95 μL of sucrose solution at a final concentration of 584 mM in 0.1 M citrate/phosphate buffer (pH 6.0) at 30° C. Sugar profiles in the reaction mix were analysed at intervals by CE as described previously. […]
(§3) SI activity was measured by incubating the purified enzyme with different sucrose concentrations (3, 6, 15, 58, 146, 292, 584, 877, 1169 and 1461 mM) under standard assay conditions, and also with addition of glucose, fructose or both to a final concentration of 277 mM. Data were analyzed according to the method of Lineweaver and Burk (Voet and Voet, 1995) to calculate Km and Vmax values.

Row | Molecule | Km | Vmax [U mg^−1]
33 | B1 | 46.6 mM and 47 mM | 636.9

Substrate: OC[C@H]1O[C@@](CO)(O[C@H]2O[C@H](CO)[C@@H](O)[C@H](O)[C@H]2O)[C@@H](O)[C@@H]1O
Test: Sucrose isomerase kinetics, purified SI from Klebsiella sp. 14S (isomaltulose production), with or without glucose/fructose
Assay type: biochemical
Details: other: sucrose, pH 6.0, 30° C., Lineweaver and Burk
Description: as §1, §2, §3

Row | Molecule | Km [mM] | Vmax [U mg^−1]
34 | B2 | 81.6 | 99.8
